We go through 88 compounds from a melting point compilation (Tetko et al.; mined from patent text by program, amines drawn as free bases though some values may be those of a salt).

The structures appear in SMILES notation. Some results are limits rather than exact numbers.

The compound `O=[PH](c1ccc(N2CCCC2)cc1)c1ccc(N2CCCC2)cc1` came in with a melting point of 199 °C. In the case of `O=C1NC(CCc2cc(C(F)(F)F)cc(C(F)(F)F)c2)C(Cc2c[nH]c3ccccc23)N1` (stereo not drawn) it was 194 to 195 °C; in that of `CS(=O)(=O)N1CCC(N)CC1`, 65.3 to 65.7 °C. In turn, `COc1nc(C)nc(NC(=O)NS(=O)(=O)c2ccccc2-c2cnn(C)c2)n1` returned a melting point of 221 to 224 °C. Then `CC(O)CNC(=O)NC(=O)C(CC1CCCC1)c1ccc(Cl)c(Cl)c1` (stereo not drawn), with 117 to 120 °C; and `O=C(Nc1nccs1)C(=O)c1cn(Cc2ccc(F)cc2)c2ccccc12`, with 233 to 237 °C; and `CCSc1cc(C)nc(SCC)c1NC(=O)CCCCSc1nc2cccc(C(F)(F)F)c2o1`, with 155 to 156 °C. Then `CN1CCN(c2ccnc3sc(C(N)=O)c(N)c23)CC1`, with 260 to 263 °C; and `CC(OC(=O)N(C(C)C)C(C)C)c1ccccc1[N+](=O)[O-]` (stereo not drawn), with 40 to 41 °C.

For the compound `O=C1c2ccccc2C(=O)N1CCc1cn(C2OCC(O)C(O)C2O)c(=O)[nH]c1=O` (stereo not drawn), the melting point stood at 137 °C. As to `COC(=O)Cc1coc2cc(C(=O)NC(C(=O)NCc3ccccc3)c3ccccc3)ccc12` (stereo not drawn), the melting point was in the range of 129 to 131 °C. `O=Cc1ccc(OCCN2Cc3ccccc3C2=O)cc1`: the melting point was 134 to 135 °C. Take `CNC(=O)C(Cc1ccc(F)cc1)NC(=O)Nc1n[nH]c(=S)s1` (stereo not drawn): the melting point is 225 to 227 °C.

In the case of `COCC(C(=O)O)N(CCN(CC(=O)O)C(COC)C(=O)O)CC(=O)O` (stereo not drawn), the melting point turned out to be 215 °C. Compound `CCOP(=O)(OCC)C(CSC(OC(C)=O)OC(=O)N1CCN(c2cc3c(cc2F)c(=O)c(C(=O)O)cn3CC)CC1)P(=O)(OCC)OCC` (stereo not drawn) gave a melting point of 89 to 90 °C. Take `CC(=O)N1c2cc(Cl)ccc2Sc2ccc(C(C)N(O)C(N)=O)cc21` (stereo not drawn): the melting point lay within 157 to 159 °C.

`COc1ccc2c(c1)C(=O)N(c1ccc3c(c1)NCCN3)C2` gave a melting point of 159 to 163 °C. Regarding `Cc1nc2cc(Oc3cc(-c4ccc(C(F)(F)F)cc4)ccn3)ccc2s1`, the melting point lay in the range of 160 to 164 °C. In turn, `CCOC(=O)c1ccc2nc(N[C@@H]3CCc4ccccc43)ccc2c1` yielded a melting point of 137 °C. For the compound `COc1cccc(OC)c1-c1cc(C(=O)NC2(C(=O)O)C3CC4CC(C3)CC2C4)nn1-c1ccc([N+](=O)[O-])cc1C` (stereo not drawn), the melting point stood at 150 °C. In the case of `NC1=NN(c2ccc(Cl)c(Cl)c2)CC1` it was 182 to 184 °C; in that of `CC(C)(C)c1ccc(C(=O)N[C@H]2CC[C@H](CCN3CCN(c4nccc5c4CCO5)CC3)CC2)cc1`, 186 °C; in that of `N#Cc1c(N2CCc3ccccc3CC2)nc(C2CC2)n(CC(F)(F)F)c1=O`, 116 to 118 °C. The compound `CC(C)NC1=NS(=O)(=O)c2ccc(C(C)C)cc2N1` showed a melting point of 237 to 239 °C. On to `CC(C)(C1OCCO1)C(O)(COc1ccc(F)cc1)Cn1cncn1` (stereo not drawn), for which the melting point was in the range of 102 to 104 °C. In the case of `Nc1nc(-c2cc(Cl)ccc2Cl)nc(N2CCN(c3ncccn3)CC2)n1` it was 224 to 225 °C. `COCC1(OP(=O)(O)O)CCN(c2c(F)cc(N3C[C@H](CNC(C)=O)OC3=O)cc2F)CC1` gave a melting point greater than 140 °C. Compound `Cc1cc(Br)cnc1CCCCNc1ncc(Cc2ccc3c(c2)OCO3)c(=O)[nH]1` gave a melting point of 145 to 146 °C. Then `Nc1ccc(C(=O)N2Cc3cccn3-c3ccccc32)cc1`, with 225 to 228 °C; and `COCCOc1cc2ncc(C#N)c(Cl)c2cc1OC`, with 178 to 180 °C. In the case of `CN(CCCC(C(N)=O)(c1ccccc1)c1ccccc1)CCc1ccc2c(c1)OCO2` it was 89 to 90 °C; in that of `NS(=O)(=O)c1cc(C(=O)O)cc([N+](=O)[O-])c1Oc1cccc(Cl)c1`, 230 to 232 °C.

Compound `CS(=O)(=O)Nc1cc(C(O)CNC2CCN(c3ccc(CC4SC(=O)N(CC(=O)O)C4=O)cc3)CC2)ccc1O` (stereo not drawn) gave a melting point of 158 to 160 °C.

As to `CN(C)Cc1csc(N(C)CC#CI)n1`, the melting point lay within 98 to 100 °C. For `COc1cc(C2C3=C(COC3=O)Nc3ccc4nc(C)sc4c32)ccc1[N+](=O)[O-]` (stereo not drawn), the melting point lay within 190 to 191 °C. Then `Cc1cccc(NC(=O)NCC(=O)N(CC(=O)OC(C)(C)C)c2ccccc2C(=O)N(C)c2ccccc2)c1`, with 145 °C; and `CCCCc1oc2ccccc2c1C(=O)N(Cc1ccccc1)Cc1ccc2cc(O)ccc2c1`, with 160 to 164 °C; and `CC1CCCN(c2cncc(C(=O)Nc3nnn[nH]3)n2)C1` (stereo not drawn), with 236 to 238 °C.

For the compound `C=CCc1cc(Br)ccc1OCC(=O)OCC`, the melting point worked out at 70.5 °C.

Compound `Cc1ccc(S(=O)(=O)N2CCC[C@H]2C(=O)N[C@@H](Cc2ccccc2)C(=O)NOCc2ccccc2)cc1` yielded a melting point of 127 to 130 °C. Then `O=C1Nc2cc(Cl)c(Cl)cc2C1c1ccccc1Cl` (stereo not drawn), with 198 to 201 °C; and `CCCCN1C(=O)C2C3CCC(O3)C2C1=O` (stereo not drawn), with 82 to 83 °C; and `O=C1NCCC[C@@H]1NS(=O)(=O)c1cc(F)ccc1F`, with 183 to 185 °C. `CCOC(=O)c1cc2c(C)cccc2n1CCNS(=O)(=O)c1ccc(C)cc1` returned a melting point of 92 to 93 °C. The compound `CC(C)(C)c1ccc(S(=O)(=O)Nc2ncnc(Cl)c2Oc2ccccc2)cc1` gave a melting point of 143 to 144 °C. The compound `N#CC(C#N)=C1N(CCCCN2CCCCC2)CCN1CCCCN1CCCCC1` gave a melting point of 96 to 98 °C. Then `CN(C)C(=O)N1CC2(CCN(C(=O)Nc3nnc(-c4ccccc4)s3)CC2)c2ccccc21`, with 267 °C; and `COc1cn(Cc2ccc(OC)c(OC)c2)c(=O)o1`, with 99.5 to 102 °C; and `COc1cccc2c1CCC(COC(=O)N(c1ccccc1)c1ccccc1)C2` (stereo not drawn), with 144 to 146 °C. As to `COc1cc(NC(=O)OC(C)(C)C)c(N)cc1-c1cc(F)ccc1F`, the melting point was 144 °C. In the case of `Cc1cc(C)c2c(c1)OC(=O)C2c1ccc(C(C)C)cc1` (stereo not drawn) it was 76 to 77 °C. The compound `CS(=O)(=O)Oc1ccc(N)c(OCCBr)c1` came in with a melting point of 69 to 70 °C. In the case of `CCOC(=O)Nc1cc(N[C@H](C)C(=O)c2ccccc2)c([N+](=O)[O-])c(N)n1` it was 150 to 155 °C; in that of `O=C1OC(=O)c2cc3c(ccc4ccccc43)cc21`, 278 °C. In turn, `CCC(NS(C)(=O)=O)P(=O)(Oc1ccccc1)Oc1ccccc1` (stereo not drawn) came in with a melting point of 136 to 139 °C. In turn, `COc1cc(Nc2ncc(-c3cccc([N+](=O)[O-])c3)o2)ccc1-c1cnco1` displayed a melting point of 279 to 281 °C.

Consider `COc1ccc(-c2ccc(C=O)c3ccoc23)cc1`, for which the melting point is 143 to 144 °C.

Turning to `O=C(O)CC(=O)Nc1ccc2c(=O)[nH]c(=O)n(CCCCN3CCC(OC(c4ccccc4)c4ccccc4)CC3)c2c1`, the melting point lay within 230 to 232 °C. In the case of `Nc1ccc(CN2CCNC(=O)C2=O)cc1` it was 246 to 249 °C. `C=C(C)C(=O)OCCNc1nc(Cl)nc(Cl)n1` showed a melting point of 138 to 140 °C. `CC(C)N1CCC(CNc2ccc(Cl)cc2C(=O)Nc2ccccn2)CC1` showed a melting point of 118 to 120 °C. In the case of `CN(C(=O)c1cnc(N2CCNC2=O)nc1N)c1cccc(C(F)(F)F)c1` it was 249 to 250 °C; in that of `Fc1c(F)c(F)c2c(CCNCc3cccc(OCC(F)(F)F)c3)c[nH]c2c1F`, 107 to 108 °C. Then `COc1cc(-c2oc3ccccc3c(=O)c2C(=O)NCCCCN2CCN(c3ccccn3)CC2)cc(OC)c1OC`, with 168 to 173 °C. In turn, `O=[N+]([O-])c1cnn2c(-c3ccccc3)nc3ccccc3c12` registered a melting point of 187 to 188 °C.

In turn, `COC(=O)CC1Sc2sc(S(N)(=O)=O)cc2NC1=O` (stereo not drawn) returned a melting point of 195 to 197 °C. Take `COc1ccc2nc(C)[nH]c(=O)c2c1Br`: the melting point is 273 to 274 °C. Take `O=C(N[C@@H]1CCc2c(Br)ccc(N3CCNCC3)c2C1)c1ccc(N2CCOCC2)cc1`: the melting point was 228 to 229 °C. In the case of `C[C@H]1CN(c2c(F)c(N)c3c(=O)c(C(=O)O)cn(C4CC4)c3c2F)C[C@H]1CN` (relative stereo) it was 221 to 223 °C. In the case of `COC(=O)c1ccc(I)cc1Nc1ccccc1C(=O)O`, the melting point was 206 to 208 °C.

`CC(C)NCC(O)COc1ccc2c(=O)cc(-c3cc(O)cc(O)c3)oc2c1` (stereo not drawn) gave a melting point of 130 °C. As for `N#Cc1nc2cc(Cl)c3cccnc3c2o1`, the melting point was in the range of 214 to 215 °C. Then `Nc1sc(CC(O)CO)cc1C(=O)c1ccccc1Cl` (stereo not drawn), with 136 to 137 °C.

Regarding `CCCc1nc2c(N)nc(C)c(C)c2n1CCCC(=O)N1CCOCC1`, the melting point lay within 164 to 165 °C. In the case of `Clc1ccc(OCc2ccc3ccccc3n2)cc1Cl` it was 80.5 to 82 °C. Then `C=C1CCC2C3CCC4CC(O)C(OC)CC4(C)C3CCC12C` (stereo not drawn), with 131 to 133 °C. Then `CCc1nc(O)cc(O)n1`, with 312 to 315 °C; and `COc1c(C)cnc(C(Br)C#N)c1C` (stereo not drawn), with 56 to 57 °C; and `Cn1cc(C(=O)Nc2ccccc2-c2ccc(Br)cc2)c(C(F)(F)F)c1`, with 163 to 164 °C. Regarding `NC(=O)c1ccnc(-c2cccc3cc(Cc4cccc(C(F)(F)F)c4)sc23)c1`, the melting point was in the range of 177 to 178 °C.

`Nc1ccc(C(=O)OCCCCl)c(N)c1` displayed a melting point of 97 °C. Turning to `COc1cc2c(cc1O)C(Cc1c(OC)cccc1[N+](=O)[O-])N(C)CC2` (stereo not drawn), the melting point was 163 to 165 °C. In the case of `Cc1ccccc1C=C1CCn2c1nc1ccc(C(N)=O)cc1c2=O`, the melting point was 347 to 349 °C. In the case of `CSc1nnc(Sc2ncnc3c(C)csc23)s1` it was 163 to 166 °C.

Take `COc1cc(OC)c2c(c1)OCC(CNCCCOc1cccc(N)c1)O2` (stereo not drawn): the melting point was 123 to 128 °C. In the case of `COCC(=O)C1CCC2C3CCC4CC(OC(C)=O)CCC4(C)C3C(=O)CC12C` (stereo not drawn) it was 93 °C; in that of `Cn1ccc2ncnc(Oc3ccc(NC(=O)Nc4cccc(C(F)(F)F)c4)c(Cl)c3)c21`, 192 to 194 °C; in that of `O=C1CC[C@H](N2C(=O)c3cccc(CNC(=O)C4CC4)c3C2=O)C(=O)N1`, 219 to 221 °C.

As a reminder, the melting point is the temperature, or range, at which the solid turns liquid.
